This passage reports Ki results from BindingDB's records for doi:10.1038/sj.bjp.0702751 (Cerebrus, 1999).

For experiment [1], the target named is T1, 5-hydroxytryptamine receptor 2C (Homo sapiens, UniProt P28335).
T1 sequence (P28335 whole entry): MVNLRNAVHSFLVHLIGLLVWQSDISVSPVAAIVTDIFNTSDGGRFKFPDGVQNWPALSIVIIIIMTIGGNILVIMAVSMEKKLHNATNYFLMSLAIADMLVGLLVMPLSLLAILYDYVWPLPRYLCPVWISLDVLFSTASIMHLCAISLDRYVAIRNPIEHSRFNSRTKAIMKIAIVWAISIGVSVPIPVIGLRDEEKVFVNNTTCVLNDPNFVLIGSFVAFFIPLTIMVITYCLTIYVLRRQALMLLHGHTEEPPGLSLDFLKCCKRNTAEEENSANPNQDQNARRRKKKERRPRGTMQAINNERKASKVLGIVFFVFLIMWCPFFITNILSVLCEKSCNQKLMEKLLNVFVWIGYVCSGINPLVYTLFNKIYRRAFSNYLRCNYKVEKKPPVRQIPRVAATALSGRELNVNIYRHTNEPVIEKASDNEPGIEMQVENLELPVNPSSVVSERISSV

The target of experiment [2] is 5-hydroxytryptamine receptor 2B (Homo sapiens, UniProt P41595).
Sequence of 5-hydroxytryptamine receptor 2B (P41595 whole entry): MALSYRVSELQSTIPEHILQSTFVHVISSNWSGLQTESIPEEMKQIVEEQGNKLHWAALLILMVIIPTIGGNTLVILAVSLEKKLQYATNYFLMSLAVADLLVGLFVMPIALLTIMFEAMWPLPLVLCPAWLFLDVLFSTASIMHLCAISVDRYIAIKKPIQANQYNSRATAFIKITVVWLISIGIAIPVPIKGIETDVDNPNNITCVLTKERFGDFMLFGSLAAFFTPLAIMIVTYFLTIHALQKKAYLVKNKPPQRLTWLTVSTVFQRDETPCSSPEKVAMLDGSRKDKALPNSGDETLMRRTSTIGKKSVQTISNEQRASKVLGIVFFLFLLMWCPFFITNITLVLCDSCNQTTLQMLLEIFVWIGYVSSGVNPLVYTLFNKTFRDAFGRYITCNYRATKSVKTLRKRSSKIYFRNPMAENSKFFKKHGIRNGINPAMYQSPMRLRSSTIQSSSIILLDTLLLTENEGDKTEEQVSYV

pKi: −log10 of the molar value.

Regarding `CC(N)Cc1c[nH]c2ccc(OCc3cccs3)cc12` (configuration not stated) [NSC_5311036], in experiment [1], the negative-log Ki (pKi) (commonly the negative decadic logarithm of the Ki, by convention in mol/L) is 7.03.
Take `NCCc1c[nH]c2ccccc12` [1H-indole-3-ethanamine]: the pKi in experiment [2] was 7.53; in experiment [1] it was 7.34.
`Clc1cncc(N2CCNCC2)n1` [L-630,571]: the pKi is 6.53 in experiment [2] and 6.67 in experiment [1].
Take `Cn1cc(CCN)c2cc(O)ccc21` [5-HT,omega-N-Me]: the negative-log Ki (pKi) is 8.70 in experiment [2] and 7.94 in experiment [1].
For `CN1CCc2cc(Cl)c(O)cc2[C@@H](c2ccccc2)C1` [SCH 23390,R(+)], in that order: 7.15 and 7.39.
Consider `Cc1[nH]c2ccc(O)cc2c1CCN`, for which the pKi is 6.77 in experiment [2] and 5.92 in experiment [1].
For `FC(F)(F)c1ccc(N2CCNCC2)nc1Cl` [2-Chloro-3-(trifluoromethyl)-6-(1-piperazinyl)pyridine], in that order: 6.28 and 7.01.
Take `C[C@H](N)Cc1cccc(C(F)(F)F)c1` [Norfenfluramine (+)]: the negative logarithm of the Ki (pKi) in experiment [2] was 8.06; in experiment [1], 6.77.
`NCCc1c[nH]c2ccc(C(N)=O)cc12` [[3H]-5-carboxamidotryptamine] gave a pKi in experiment [2] of 7.81.
With `CC(N)Cn1ccc2cc(F)c(Cl)cc21` (configuration not stated) [NSC_3045226], the pKi in experiment [2] is 9.05; in experiment [1], 7.49.
`CCCN(CCC)C1CCc2cccc(O)c2C1` (configuration not stated) gave a negative-log Ki (pKi) in experiment [2] of 6.05.
Turning to `COc1ccc2c(c1[C@@H]1CCNC1)CCC2` [ORG-37684], the values for the pKi in experiment [2] and in experiment [1] were 7.96 and 8.17, respectively.
As for `c1ccc2nc(N3CCNCC3)ccc2c1` [2-Piperazin-1-yl-quinoline (Quipazine)], the negative logarithm of the Ki (pKi) in experiment [2] is 6.75; in experiment [1], 6.47.
In the case of `COc1cc(CC(C)N)c(OC)cc1I` (configuration not stated) [[125I]2,5-dimethoxy-4-iodoamphetamine], the values for the negative logarithm of the Ki (pKi) in experiment [2] and in experiment [1] were 8.85 and 8.10, respectively.
In experiment [2], `FC(F)(F)c1cccc(N2CCNCC2)c1` [TFMPP] had a pKi of 6.54.
Turning to `COc1cc(CC(C)N)c(OC)cc1Br` (stereo not drawn) [2-(4-Bromo-2,5-dimethoxy-phenyl)-1-methyl-ethylamine((-)-DOB)], in experiment [2], the negative-log Ki (pKi) is 8.54.
